In patent US20120178758A1, “STYRYL-TRIAZINE DERIVATIVES AND THEIR THERAPEUTICAL APPLICATIONS” (CALIFORNIA CAPITAL EQUITY, LLC, priority 2009, published 2012) one finds inhibition data, which are given here for eleven compounds.

By inhibition is commonly meant how much of the control response was suppressed.

Holding throughout (type): biochemical
One assay has as its target T1, Aurora-A(h) (Homo sapiens, UniProt O14965).
T1 construct: purchased Millipore (KinaseProfiler Service) / Reaction Biology Corp. (Kinase Hotspot)
T1 sequence (O14965 1-403): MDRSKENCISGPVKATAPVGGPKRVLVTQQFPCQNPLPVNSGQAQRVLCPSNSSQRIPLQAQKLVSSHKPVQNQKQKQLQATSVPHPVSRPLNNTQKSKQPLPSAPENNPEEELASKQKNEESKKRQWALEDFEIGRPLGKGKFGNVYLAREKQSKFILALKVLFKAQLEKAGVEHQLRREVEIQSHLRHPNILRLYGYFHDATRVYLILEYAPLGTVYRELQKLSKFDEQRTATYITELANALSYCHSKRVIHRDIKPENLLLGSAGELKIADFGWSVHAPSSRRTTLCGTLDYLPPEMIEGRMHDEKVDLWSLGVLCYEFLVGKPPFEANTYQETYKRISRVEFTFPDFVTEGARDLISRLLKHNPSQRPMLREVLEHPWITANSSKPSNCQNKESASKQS
Put plainly: Aurora-A kinase assay (KinaseProfiler / Kinase Hotspot). Conditions: compound at 1 μM; read-out: % Inhibition @1 μM Auroro-A. Here is the method: (§1) This example illustrated c-Src kinase, Aurora-A kinase, Flt3 kinase, Ret kinase and TrkA Kinase Assays of selected Compounds from this invention (referred to Daniele Fancelli et al, J. Med. Chem., 2006, 49 (24), pp 7247-7251). The KinaseProfiler™ Service Assay Protocols (Millipore) were used to test the kinase inhibiting activity of novel compounds from this invention. To do this, the buffer composition was as: 20 mM MOPS, 1 mM EDTA, 0.01% Brij-35, 5% Glycerol, 0.1% […], 1 mg/mL BSA. Test compounds were initially dissolved in DMSO at the desired concentration, then serially diluted to the kinase assay buffer. In a final reaction volume of 25 μL, Aurora-A(h) (5-10 mU) is incubated with 8 mM MOPS pH 7.0, 0.2 mM EDTA, 200 μM LRRASLG (Kemptide), 10 mM MgAcetate and [γ^33P-ATP]. The reaction was initiated by the addition of the MgATP mix. After incubation for 40 minute at room temperature, the reaction was stopped by addition of 5 μL of a 3% phosphoric acid solution. 10 μL of the reaction was then spotted onto a P30 filtermat and washed three times for 5 minutes in 50 mM phosphoric acid and once in methanol prior to drying and scintillation counting. Wells containing substrate but no kinase and wells containing a phosphopeptide control were used to set 0% and 100% phosphorylation value, repectively.
(§2) Also Kinase Hotspot™ kinase assay was used to test the compounds for IC50 or % inhibitions (Reaction Biology Corp.). Inhibitor IC50 values were determined by titration of compound at the optimal kinase concentration (Kinase EC50).

A further assay deals with T2, c-Src kinase (Homo sapiens, UniProt P12931).
T2 construct: purchased Millipore (KinaseProfiler Service) / Reaction Biology Corp. (Kinase Hotspot)
Briefly: c-Src kinase assay (KinaseProfiler / Kinase Hotspot). Conditions: compound at 1 μM; read-out: % Inhibition @1 μM cSrc. Here is the method:
as §1, §2

A further assay deals with T3, Ret kinase (Homo sapiens, UniProt P07949).
T3 construct: purchased Millipore (KinaseProfiler Service) / Reaction Biology Corp. (Kinase Hotspot)
Briefly: Ret kinase assay (KinaseProfiler / Kinase Hotspot). Particulars: compound at 1 μM. Here is the method:
as §1, §2

The target in the next assay is T4, Flt3 kinase (Homo sapiens, UniProt P36888).
T4 construct: purchased Millipore (KinaseProfiler Service) / Reaction Biology Corp. (Kinase Hotspot)
T4 sequence (P36888 27-993): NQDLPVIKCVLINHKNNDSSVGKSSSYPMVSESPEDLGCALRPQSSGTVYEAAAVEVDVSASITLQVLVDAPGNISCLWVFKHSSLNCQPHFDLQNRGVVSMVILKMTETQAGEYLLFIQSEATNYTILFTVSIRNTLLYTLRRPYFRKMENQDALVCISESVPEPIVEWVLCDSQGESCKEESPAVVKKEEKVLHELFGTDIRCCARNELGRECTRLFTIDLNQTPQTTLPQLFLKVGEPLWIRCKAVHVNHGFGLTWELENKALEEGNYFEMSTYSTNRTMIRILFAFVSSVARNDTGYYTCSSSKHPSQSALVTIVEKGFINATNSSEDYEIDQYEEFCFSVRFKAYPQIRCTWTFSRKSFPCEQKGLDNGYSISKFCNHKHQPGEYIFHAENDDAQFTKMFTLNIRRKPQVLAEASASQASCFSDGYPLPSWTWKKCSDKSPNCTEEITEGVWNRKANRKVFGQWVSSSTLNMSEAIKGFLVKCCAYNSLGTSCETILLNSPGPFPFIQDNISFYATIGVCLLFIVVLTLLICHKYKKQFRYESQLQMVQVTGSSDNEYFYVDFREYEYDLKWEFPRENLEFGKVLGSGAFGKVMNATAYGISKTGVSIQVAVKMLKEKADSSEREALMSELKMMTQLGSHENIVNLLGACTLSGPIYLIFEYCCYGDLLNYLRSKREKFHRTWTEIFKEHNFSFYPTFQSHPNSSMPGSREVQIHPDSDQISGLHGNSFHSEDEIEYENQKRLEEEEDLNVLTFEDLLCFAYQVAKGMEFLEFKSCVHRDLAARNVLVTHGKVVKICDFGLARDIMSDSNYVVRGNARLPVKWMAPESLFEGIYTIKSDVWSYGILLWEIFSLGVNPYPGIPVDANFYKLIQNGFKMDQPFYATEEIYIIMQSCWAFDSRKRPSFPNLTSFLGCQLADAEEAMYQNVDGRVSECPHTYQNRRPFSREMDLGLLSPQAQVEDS
Put plainly: Flt3 kinase assay (KinaseProfiler / Kinase Hotspot). Particulars: compound at 1 μM. Here is the method: as §1, §2

The next assay deals with T5, TrkA Kinase (Homo sapiens, UniProt P04629).
T5 construct: purchased Millipore (KinaseProfiler Service) / Reaction Biology Corp. (Kinase Hotspot)
Briefly: TrkA kinase assay (KinaseProfiler / Kinase Hotspot). Particulars: compound at 1 μM. Here is the method: as §1, §2

T2 sequence (P12931 whole entry): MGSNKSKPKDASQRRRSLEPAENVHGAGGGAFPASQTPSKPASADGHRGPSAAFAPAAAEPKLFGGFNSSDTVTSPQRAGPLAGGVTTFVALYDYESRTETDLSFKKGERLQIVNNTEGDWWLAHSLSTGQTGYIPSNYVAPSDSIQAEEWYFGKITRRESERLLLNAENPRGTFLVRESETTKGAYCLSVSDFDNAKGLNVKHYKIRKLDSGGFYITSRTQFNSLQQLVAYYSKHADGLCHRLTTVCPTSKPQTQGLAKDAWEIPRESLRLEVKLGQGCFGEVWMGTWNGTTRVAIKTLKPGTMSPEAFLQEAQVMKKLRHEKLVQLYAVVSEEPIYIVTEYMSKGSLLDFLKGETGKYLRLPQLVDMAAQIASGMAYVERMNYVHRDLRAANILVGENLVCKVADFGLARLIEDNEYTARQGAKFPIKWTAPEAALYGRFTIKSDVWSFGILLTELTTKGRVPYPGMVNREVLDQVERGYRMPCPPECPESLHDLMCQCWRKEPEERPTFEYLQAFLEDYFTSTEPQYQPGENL
T5 sequence (P04629 33-796): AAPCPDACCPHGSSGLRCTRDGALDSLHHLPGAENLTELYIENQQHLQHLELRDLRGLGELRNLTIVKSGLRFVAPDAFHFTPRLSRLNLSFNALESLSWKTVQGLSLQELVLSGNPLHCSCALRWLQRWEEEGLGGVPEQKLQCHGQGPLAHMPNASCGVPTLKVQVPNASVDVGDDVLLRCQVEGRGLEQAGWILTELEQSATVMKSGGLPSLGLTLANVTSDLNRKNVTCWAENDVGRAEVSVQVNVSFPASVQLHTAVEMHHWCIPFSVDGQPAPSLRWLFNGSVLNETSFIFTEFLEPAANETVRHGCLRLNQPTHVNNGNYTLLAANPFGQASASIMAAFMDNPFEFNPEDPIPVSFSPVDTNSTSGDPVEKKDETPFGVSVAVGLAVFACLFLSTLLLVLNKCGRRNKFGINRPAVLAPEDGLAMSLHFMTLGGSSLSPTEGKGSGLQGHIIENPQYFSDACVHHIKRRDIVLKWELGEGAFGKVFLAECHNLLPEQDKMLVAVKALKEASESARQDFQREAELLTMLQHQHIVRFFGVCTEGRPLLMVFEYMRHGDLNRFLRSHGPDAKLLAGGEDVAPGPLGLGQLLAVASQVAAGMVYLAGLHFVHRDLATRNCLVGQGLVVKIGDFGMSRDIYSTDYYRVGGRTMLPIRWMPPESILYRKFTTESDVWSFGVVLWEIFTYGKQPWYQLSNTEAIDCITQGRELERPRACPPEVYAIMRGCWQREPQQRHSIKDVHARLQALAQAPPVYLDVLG
T3 sequence (P07949 29-1114): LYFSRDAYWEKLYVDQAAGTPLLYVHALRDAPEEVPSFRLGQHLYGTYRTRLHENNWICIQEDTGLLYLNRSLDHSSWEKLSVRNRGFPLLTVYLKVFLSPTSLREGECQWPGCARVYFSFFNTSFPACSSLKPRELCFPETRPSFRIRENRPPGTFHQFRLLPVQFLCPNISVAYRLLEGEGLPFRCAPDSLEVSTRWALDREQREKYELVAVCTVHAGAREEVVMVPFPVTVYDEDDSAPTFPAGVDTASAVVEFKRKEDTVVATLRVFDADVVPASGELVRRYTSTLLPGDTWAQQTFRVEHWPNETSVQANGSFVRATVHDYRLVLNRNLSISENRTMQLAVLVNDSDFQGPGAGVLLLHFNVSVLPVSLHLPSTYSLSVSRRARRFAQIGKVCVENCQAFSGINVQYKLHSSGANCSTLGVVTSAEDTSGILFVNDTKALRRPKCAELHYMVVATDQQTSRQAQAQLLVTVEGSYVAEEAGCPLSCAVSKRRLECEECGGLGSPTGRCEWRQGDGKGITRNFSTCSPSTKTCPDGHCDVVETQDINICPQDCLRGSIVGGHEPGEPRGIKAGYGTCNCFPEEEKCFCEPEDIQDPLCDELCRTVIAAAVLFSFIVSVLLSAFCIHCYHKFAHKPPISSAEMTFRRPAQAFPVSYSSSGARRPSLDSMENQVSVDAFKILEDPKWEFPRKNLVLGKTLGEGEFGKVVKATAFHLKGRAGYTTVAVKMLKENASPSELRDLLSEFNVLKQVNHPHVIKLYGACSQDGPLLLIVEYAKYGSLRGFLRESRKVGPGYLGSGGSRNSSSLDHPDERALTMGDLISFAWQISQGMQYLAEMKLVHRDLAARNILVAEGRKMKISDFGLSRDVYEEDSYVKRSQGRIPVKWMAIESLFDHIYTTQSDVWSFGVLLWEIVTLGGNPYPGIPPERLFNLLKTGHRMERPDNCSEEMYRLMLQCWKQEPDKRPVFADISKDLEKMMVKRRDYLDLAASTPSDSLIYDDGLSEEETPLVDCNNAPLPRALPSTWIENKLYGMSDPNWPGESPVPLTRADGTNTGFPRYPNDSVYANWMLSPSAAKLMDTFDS

With `Cc1cc(Nc2nc(C#Cc3ccccc3)nc(N3CCN(C)CC3)n2)n[nH]1` [Example 3], the inhibition at 1 µM at Aurora-A(h) was 50 to 90%; on c-Src kinase, less than 50%; against Ret kinase, 50 to 90%; at Flt3 kinase, 50 to 90%; on TrkA Kinase, more than 90%.

On to `Cc1cc(Nc2nc(/C=C\c3ccccc3)nc(N3CCN(C)CC3)n2)n[nH]1` [Example 4], for which the inhibition at 1 µM was 50 to 90% at Aurora-A(h); less than 50% at c-Src kinase; less than 50% against Ret kinase; 50 to 90% at Flt3 kinase; 50 to 90% against TrkA Kinase.

Regarding `Cc1cc(Nc2nc(/C=C/c3ccccc3)nc(N3CCN(C)CC3)n2)n[nH]1` [Example 7], the inhibition at 1 µM on Aurora-A(h) was more than 90%; at c-Src kinase it was 50 to 90%; at Ret kinase, 50 to 90%; at Flt3 kinase, more than 90%; at TrkA Kinase, more than 90%.

On to `Cc1cc(Nc2nc(/C=C/c3ccc(Cl)cc3)nc(N3CCN(C)CC3)n2)n[nH]1` [Example 8], for which the inhibition at 1 µM on Aurora-A(h) is 50 to 90%; on c-Src kinase, 50 to 90%; against Ret kinase, 50 to 90%; against Flt3 kinase it was more than 90%; against TrkA Kinase it was more than 90%.

For the compound `Cc1ccc(/C=C/c2nc(Nc3cc(C)[nH]n3)nc(N3CCN(C)CC3)n2)cc1` [Example 9], the inhibition at 1 µM at Aurora-A(h) was 50 to 90%; at c-Src kinase it was less than 50%; at Ret kinase, 50 to 90%; against Flt3 kinase, 50 to 90%; at TrkA Kinase, more than 90%.

Turning to `Cc1cc(Nc2nc(/C=C/c3ccccc3Cl)nc(N3CCN(C)CC3)n2)n[nH]1` [Example 10], the inhibition at 1 µM on Aurora-A(h) was 50 to 90%; on c-Src kinase, 50 to 90%; on Ret kinase it was less than 50%; against Flt3 kinase, more than 90%; at TrkA Kinase, more than 90%.

Turning to `Cc1cc(Nc2nc(/C=C/c3cccc(Cl)c3)nc(N3CCN(C)CC3)n2)n[nH]1` [Example 11], the inhibition at 1 µM was 50 to 90% on Aurora-A(h); 50 to 90% at c-Src kinase; less than 50% against Ret kinase; more than 90% at Flt3 kinase; more than 90% at TrkA Kinase.

As for `Cc1cc(Nc2nc(/C=C/c3nccs3)nc(N3CCN(C)CC3)n2)n[nH]1` [Example 12], the inhibition at 1 µM at Aurora-A(h) was 50 to 90%; on c-Src kinase, 50 to 90%; at Ret kinase, less than 50%; against Flt3 kinase, more than 90%; against TrkA Kinase, 50 to 90%.

As to `Cc1cnc(Nc2nc(/C=C/c3ccccc3)nc(N3CCN(C)CC3)n2)s1` [Example 17], the inhibition at 1 µM at Aurora-A(h) was 50 to 90%; at c-Src kinase, 50 to 90%; against Ret kinase, less than 50%; against Flt3 kinase it was more than 90%; against TrkA Kinase, more than 90%.

`CN1CCN(c2nc(/C=C/c3ccccc3)nc(Nc3cc(-c4ccccc4)[nH]n3)n2)CC1` [Example 18]: the inhibition at 1 µM is 50 to 90% at Aurora-A(h); 50 to 90% at c-Src kinase; 50 to 90% against Ret kinase; more than 90% against Flt3 kinase; more than 90% against TrkA Kinase.

As to `C/C=C/c1cc(Nc2nc(/C=C/c3ccccc3)nc(N3CCN(C)CC3)n2)n[nH]1` [Example 19], the inhibition at 1 µM on Aurora-A(h) is 50 to 90%; at c-Src kinase it was more than 90%; at Ret kinase, 50 to 90%; against Flt3 kinase, 50 to 90%; at TrkA Kinase, more than 90%.
